# Test results: paper PMC6222380 (Molecules : A Journal of Synthetic Chemistry and Natural …, 2018)
# Several values for one entry are separate records, joined by “and”; a condition that tells them apart may be missing. Equal values may be shown once.
# Molecular target: T1, CB1 receptor (Homo sapiens, UniProt P21554)
# T1 construct: transiently transfected with full-length human recombinant cDNA (OriGene, Rockville, MD, USA); host or cells: HEK293
# Test: Competitive [3H]-CP55,940 radioligand binding assay, CB1
# Settings: 16 rescreened, data from Figure 4; up to solubility limit; read-out: IC50 ± SEM CB1 (rescreen)
# Experimental: (§1) HEK293 cells were collected and transiently transfected with full-length human recombinant cDNA (OriGene, Rockville, MD, USA) containing expression clones to generate separate cell lines expressing either the CB1 or CB2 receptors (50 µg/mL) using electroporation (70 ms, single pulse, 150 volts). Transfected cells were grown in a 150 cm^2 Petri dish at 37 °C. G418 antibiotic solution (800 μg/mL) was used for selection. After selection, the HEK293 cells were further cultured until single colonies were obtained. The colonies with binding ratio (%) over 80% were chosen for binding and functional assays.
# (§2) Cell plasma membranes were prepared from cells with stable expression of CB1 or CB2 receptors. Cells grown to confluency were lysed and scraped in cold 50 mM Tris-HCl buffer at pH 7.4 and then centrifuged at 1000 rpm for 10 min at 4 °C. The supernatant was discarded while the pellets were resuspended in the same buffer. A Sonic Dismembrator Model 100 (Fisher Scientific, Pittsburgh, PA, USA) was used to homogenize the cell suspension for 30 s, which was then centrifuged at 3165 rpm for 10 min at 4 °C to separate the membranes and cytosolic fractions. The supernatant was saved, and the pellet underwent the suspension and homogenization process repeated two more times with the same conditions. The supernatants were combined and centrifuged at 13,650 rpm for 40 min at 4 °C. The pellet was re-suspended in cold 50 mM Tris-HCl buffer, aliquoted into 2 mL vials, and stored at −80 °C. The total membrane protein concentration was measured using a Pierce BCA Protein Assay Kit (Thermo Scientific, Rockford, IL, USA) as per the manufacturer’s protocol.
# (§3) Competitive binding assays were performed with a modified rapid filtration assay described by Ma et al. (2007) and Felder et al. (1992). […] The reaction was terminated via rapid vacuum filtration with cold Tris-HCl with 0.1% BSA through a 96-well UniFilter GF/C filter precoated with 0.5% Polyethyleneimine (PEI,) to separate bound and unbound radioligand. Filter plates were dried at 50 °C for at least 30 min, then 25 μL MicroScint-20 was applied to each filter and the plates were read on a TopCount NXT HTS Microplate Scintillation Counter (PerkinElmer, Waltham, MA). Filter bound radioactivity was recorded in counts per minute (CPM).
# (§4) The percent binding of the nonlabeled control to the receptor was calculated using total, specific, and nonspecific binding. […] All the experimental data were analyzed using a nonlinear regression curve fit model using GraphPad Prism 5.0 software (GraphPad Software, Inc., San Diego, CA, USA) and the Kd value was calculated. Each compound was tested in triplicate, unless stated otherwise.
# (§5) Percent displacement of radioligand was determined using the following equation:(1) % displacement of radioligand=100 –(compound.CPM−nonspecific.CPM/specific.CPM ×100)
# (§6) The IC50 and Ki values were calculated from a nonlinear regression curve fit model using GraphPad Prism 5.0 software (GraphPad Software, Inc., San Diego, CA, USA).
# T1 sequence (P21554 whole entry): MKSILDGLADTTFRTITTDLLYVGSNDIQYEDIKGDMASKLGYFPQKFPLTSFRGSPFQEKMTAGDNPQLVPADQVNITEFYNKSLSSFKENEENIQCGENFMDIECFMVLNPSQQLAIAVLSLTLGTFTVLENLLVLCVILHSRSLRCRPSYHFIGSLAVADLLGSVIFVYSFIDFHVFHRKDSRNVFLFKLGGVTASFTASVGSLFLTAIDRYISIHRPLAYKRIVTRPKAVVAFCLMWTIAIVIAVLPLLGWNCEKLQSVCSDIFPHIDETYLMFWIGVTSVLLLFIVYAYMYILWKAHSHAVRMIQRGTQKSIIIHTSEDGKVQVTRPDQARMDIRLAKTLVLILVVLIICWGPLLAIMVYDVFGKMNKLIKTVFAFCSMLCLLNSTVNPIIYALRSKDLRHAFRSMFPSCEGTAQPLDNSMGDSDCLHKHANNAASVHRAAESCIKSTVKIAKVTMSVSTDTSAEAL
row,IC50,SMILES
1,0.242 ± 0.07 µM,Cc1noc(-c2ccc(O)cc2O)c1-c1ccc(Br)cc1 [Compound 16]

# Same assay, conditions: 16 rescreened, data from Figure 4; up to solubility limit; read-out: Ki ± SEM CB1 (rescreen)
row,Ki,SMILES
1,0.121 ± 0.04 µM,Cc1noc(-c2ccc(O)cc2O)c1-c1ccc(Br)cc1 [Compound 16]

# Same assay, conditions: Table 1; initial full-curve binding; superscript a = up to solubility limit; read-out: IC50 ± SEM CB1
row,IC50,SMILES
1,3.2 ± 1 µM,COc1ccc2[nH]c3c(c2c1)CCN1C(=O)CN(CCc2c[nH]c4ccccc24)C(=O)[C@]31C [Compound 2]
2,20.8 ± 4.9 µM,Cc1noc(-c2ccc(O)cc2O)c1-c1ccc(Br)cc1 [Compound 16]
3,24.6 ± 2.6 µM,CN(Cc1ccccc1)Cc1c(O)ccc2c1OC(=Cc1cn(C)c3ccccc13)C2=O [Compound 18]
4,> 5.3 µM,COC(=O)CC(c1ccc2c(c1)OCO2)c1oc(CSc2ccccc2)cc(=O)c1O (stereo not shown) [Compound 12]

# Same assay, conditions: Table 1 and text; initial full-curve binding; read-out: Ki ± SEM CB1
row,Ki,SMILES
1,1.6 µM and 1.62 µM,COc1ccc2[nH]c3c(c2c1)CCN1C(=O)CN(CCc2c[nH]c4ccccc24)C(=O)[C@]31C [Compound 2]
2,10.4 ± 2.5 µM,Cc1noc(-c2ccc(O)cc2O)c1-c1ccc(Br)cc1 [Compound 16]
3,12.3 ± 1.3 µM,CN(Cc1ccccc1)Cc1c(O)ccc2c1OC(=Cc1cn(C)c3ccccc13)C2=O [Compound 18]
4,> 2.6 µM,COC(=O)CC(c1ccc2c(c1)OCO2)c1oc(CSc2ccccc2)cc(=O)c1O (stereo not shown) [Compound 12]

# Same assay, conditions: Table 2, analogs of compound 16; read-out: Ki ± SEM CB1
row,Ki,SMILES
1,> 10 µM,Oc1ccc(-c2onc(C(F)(F)F)c2-c2ccccc2)c(O)c1 [PCB-165]

# Same assay, conditions: Table 2; 10 µM
row,% displacement at 10 μM CB1,SMILES
1,33.0%,Oc1ccc(-c2onc(C(F)(F)F)c2-c2ccccc2)c(O)c1 [PCB-165]
2,29.8%,CCCCCCc1cc(-c2onc(C)c2-c2ccc(Br)cc2)c(O)cc1OC [PCB-164]

# Same assay, conditions: Table S1 preliminary screening; 10 μM
row,SMILES,% displacement at 10 μM CB1
1,COc1ccc(-n2cc(C(=O)O)c3c2C(c2ccc(O)c(OC)c2)CC(=O)N3)cc1 (stereo not shown) [Compound 11],37.6%
2,Cc1cc(O)c2c(C)c(CC(=O)N[C@@H](CSCc3ccccc3)C(=O)O)c(=O)oc2c1 [Compound 6],28%
3,COc1ccc2c(ccn2CCC(=O)N[C@@H](Cc2c[nH]c3ccccc23)C(=O)O)c1 [Compound 10],30.2%
4,COCCN1C(=O)C(O)=C(C(=O)c2ccc3c(c2)CC(C)O3)C1c1ccc(C(C)C)cc1 (stereo not shown) [Compound 3],~ 10%
5,O=C(O)C(Cc1ccccc1)NCc1c(O)ccc2c(-c3ccccc3)cc(=O)oc12 (stereo not shown) [Compound 1],14.1%
6,O=C(COc1cc(O)c2c(=O)cc(-c3ccccc3)oc2c1)NCCCN1CCCC1=O [Compound 9],28.6%
7,COc1ccc2[nH]c3c(c2c1)CCN1C(=O)CN(CCc2c[nH]c4ccccc24)C(=O)[C@]31C [Compound 2],81.8%
8,COc1ccccc1NC(=O)C1CC(O)CN1C(=O)OCc1ccccc1 (stereo not shown) [Compound 4],13.9%
9,Cc1noc(-c2ccc(O)cc2O)c1-c1ccc(Br)cc1 [Compound 16],61.8%
10,CN(Cc1ccccc1)Cc1c(O)ccc2c1OC(=Cc1cn(C)c3ccccc13)C2=O [Compound 18],69%
11,COc1cc(C)cc2oc(=O)c(CC(=O)N[C@@H](CSCc3ccccc3)C(=O)O)c(C)c12 [Compound 5],14%
12,O=c1[nH]n(C2CCCCCC2)c2nc3c(oc4c(O)c(O)ccc43)c(-c3ccc(O)cc3)c12 [Compound 13],23.1%
13,COC(=O)CC(c1ccc(O)cc1)c1oc(CSc2ccccc2)cc(=O)c1O (stereo not shown) [Compound 14],18.7%
14,COC(=O)CC(c1ccc2c(c1)OCO2)c1oc(CSc2ccccc2)cc(=O)c1O (stereo not shown) [Compound 12],69.9% and > 50%

# Same assay, conditions: curves plateaued well before 100% receptor occupancy (Figure S2)
row,SMILES,Further binding analysis at CB1 (binding curve outcome)
1,COc1ccc2[nH]c3c(c2c1)CCNC3c1c(O)n(CCc2ccccc2)c(=S)[nH]c1=O (stereo not shown) [Compound 7],no true affinity
2,Cc1ccc(COc2ccc(-c3nc(N)ncc3Oc3ccccc3Br)c(O)c2)cc1 [Compound 15],no true affinity
3,COC(=O)c1ccc(C=C2Oc3c(ccc(O)c3CN(CC(C)C)CC(C)C)C2=O)cc1 [Compound 17],no true affinity

# Same assay, conditions: rescreen experiment, value printed in picture; read-out: CB1 Receptor Binding Ki (printed in Figure 4)
row,Ki,SMILES
1,0.121 µM,Cc1noc(-c2ccc(O)cc2O)c1-c1ccc(Br)cc1 [Compound 16]

# Molecular target: T2, CB2 receptor (Homo sapiens, UniProt P34972)
# T2 construct: transiently transfected with full-length human recombinant cDNA (OriGene, Rockville, MD, USA); host or cells: HEK293
# T2 sequence (P34972 whole entry): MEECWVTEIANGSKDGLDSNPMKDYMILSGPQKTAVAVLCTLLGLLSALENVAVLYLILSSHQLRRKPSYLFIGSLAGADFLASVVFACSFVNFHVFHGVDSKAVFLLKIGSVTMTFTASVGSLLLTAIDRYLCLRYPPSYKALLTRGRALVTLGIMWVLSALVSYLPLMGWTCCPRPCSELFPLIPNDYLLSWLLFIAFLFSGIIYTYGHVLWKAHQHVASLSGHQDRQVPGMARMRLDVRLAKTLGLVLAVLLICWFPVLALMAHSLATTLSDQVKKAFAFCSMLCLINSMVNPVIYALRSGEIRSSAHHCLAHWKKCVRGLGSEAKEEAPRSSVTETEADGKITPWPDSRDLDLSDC
# Test: Competitive [3H]-CP55,940 radioligand binding assay, CB2
# Settings: Table 1; superscript a = up to solubility limit; read-out: IC50 ± SEM CB2
# Experimental: as §1, §2, §3, §4, §5, §6
row,IC50,SMILES
1,3.25 ± 0.5 µM,COc1ccc2[nH]c3c(c2c1)CCN1C(=O)CN(CCc2c[nH]c4ccccc24)C(=O)[C@]31C [Compound 2]
2,0.101 ± 0.035 µM,CN(Cc1ccccc1)Cc1c(O)ccc2c1OC(=Cc1cn(C)c3ccccc13)C2=O [Compound 18]
3,> 5.93 µM,COC(=O)CC(c1ccc2c(c1)OCO2)c1oc(CSc2ccccc2)cc(=O)c1O (stereo not shown) [Compound 12]

# Same assay, conditions: Table 1 and text; read-out: Ki ± SEM CB2
row,Ki,SMILES
1,1.6 µM and 1.62 µM,COc1ccc2[nH]c3c(c2c1)CCN1C(=O)CN(CCc2c[nH]c4ccccc24)C(=O)[C@]31C [Compound 2]
2,0.051 ± 0.01 µM,CN(Cc1ccccc1)Cc1c(O)ccc2c1OC(=Cc1cn(C)c3ccccc13)C2=O [Compound 18]
3,> 2.97 µM,COC(=O)CC(c1ccc2c(c1)OCO2)c1oc(CSc2ccccc2)cc(=O)c1O (stereo not shown) [Compound 12]

row,SMILES,Ki
1,COCCN1C(=O)C(O)=C(C(=O)c2ccc3c(c2)CC(C)O3)C1c1ccc(C(C)C)cc1 (stereo not shown) [Compound 3],2.6 µM

# Same assay, conditions: Table 2, analogs of compound 16; read-out: Ki ± SEM CB2
row,Ki,SMILES
1,0.156 ± 0.0173 µM,CCCCCCc1cc(-c2onc(C)c2-c2ccc(Br)cc2)c(O)cc1OC [PCB-164]

# Same assay, conditions: Table 2; 10 µM
row,% displacement at 10 μM CB2,SMILES
1,97.2%,CCCCCCc1cc(-c2onc(C)c2-c2ccc(Br)cc2)c(O)cc1OC [PCB-164]

# Same assay, conditions: Table S1 preliminary screening; 10 μM
row,SMILES,% displacement at 10 μM CB2
1,COc1ccc2[nH]c3c(c2c1)CCNC3c1c(O)n(CCc2ccccc2)c(=S)[nH]c1=O (stereo not shown) [Compound 7],15.7%
2,COc1ccc(-n2cc(C(=O)O)c3c2C(c2ccc(O)c(OC)c2)CC(=O)N3)cc1 (stereo not shown) [Compound 11],13.1%
3,Cc1cc(O)c2c(C)c(CC(=O)N[C@@H](CSCc3ccccc3)C(=O)O)c(=O)oc2c1 [Compound 6],26.7%
4,COc1ccc2c(ccn2CCC(=O)N[C@@H](Cc2c[nH]c3ccccc23)C(=O)O)c1 [Compound 10],17.3%
5,COCCN1C(=O)C(O)=C(C(=O)c2ccc3c(c2)CC(C)O3)C1c1ccc(C(C)C)cc1 (stereo not shown) [Compound 3],51% and > 50%
6,O=C(COc1cc(O)c2c(=O)cc(-c3ccccc3)oc2c1)NCCCN1CCCC1=O [Compound 9],30.2%
7,Cc1ccc(COc2ccc(-c3nc(N)ncc3Oc3ccccc3Br)c(O)c2)cc1 [Compound 15],35.5%
8,COc1ccc2[nH]c3c(c2c1)CCN1C(=O)CN(CCc2c[nH]c4ccccc24)C(=O)[C@]31C [Compound 2],67.2%
9,Cc1noc(-c2ccc(O)cc2O)c1-c1ccc(Br)cc1 [Compound 16],40.2%
10,CN(Cc1ccccc1)Cc1c(O)ccc2c1OC(=Cc1cn(C)c3ccccc13)C2=O [Compound 18],61.2%
11,COC(=O)c1ccc(C=C2Oc3c(ccc(O)c3CN(CC(C)C)CC(C)C)C2=O)cc1 [Compound 17],35%
12,COc1cc(C)cc2oc(=O)c(CC(=O)N[C@@H](CSCc3ccccc3)C(=O)O)c(C)c12 [Compound 5],15.5%
13,O=c1[nH]n(C2CCCCCC2)c2nc3c(oc4c(O)c(O)ccc43)c(-c3ccc(O)cc3)c12 [Compound 13],37.4%
14,COC(=O)CC(c1ccc(O)cc1)c1oc(CSc2ccccc2)cc(=O)c1O (stereo not shown) [Compound 14],30%
15,COC(=O)CC(c1ccc2c(c1)OCO2)c1oc(CSc2ccccc2)cc(=O)c1O (stereo not shown) [Compound 12],63% and > 50%

# Molecular target: T3, human cannabinoid type 1 receptor (Homo sapiens, UniProt P21554)
# T3 construct: transiently transfected with full-length human recombinant cDNA (OriGene, Rockville, MD, USA); host or cells: HEK293
# T3 sequence (P21554 whole entry): as the sequence (P21554 whole entry) above
# Test: CB1 GTPγS functional assay
# Format: biochemical
# Settings: not given
# Experimental: The CB1 GTPγS functional assays were performed as previously described with some modifications. The assays were performed in […] of 50 mM Tris-HCl, pH = 7.4, 150 mM NaCl, 9 mM MgCl2, 0.2 mM EDTA, 1.4 mg/mL essentially fatty acid free BSA, 50 pM [^35S]-GTPγS ([^35S]-guanosine 5′-(γ-thio) triphosphate (PerkinElmer, Waltham, Massachusetts)), and 30 μg of protein per well harvested from HEK293 cells stably transfected with a plasmid overexpressing the human cannabinoid type 1 receptor. […] Plates were incubated for 90 min at 37 °C with gentle agitation in 96-well microplates, harvested with a PerkinElmer FilterMate Harvester through Unifilter GF/B filter plates (prewetted for 30 min with 0.3% BSA), and then washed 10× with […] of ice-cold 50 mM TrisHCl, pH 7.4. The filter plates were dried at 50 °C for at least 30 min. The radioactivity retained on the filters was quantified by adding […] MicroScint20 per well, incubating the filter plate overnight at room temperature to allow the radioactivity to solubilize into the scintillation fluid, and counting on a TopCount NXT Microplate Scintillation counter. Percent over basal was calculated in Microsoft Excel by subtracting the mean basal control from each value obtained and then dividing by the basal specific activity (mean basal control∓mean nonspecific binding control). Dose response curves (± SEM) of percent over basal versus log of the molar concentration of unlabeled ligand(s) were generated by a nonlinear curve fit model using GraphPad Prism 5.0 software.
EC50,Functional phenotype at CB1 in GTPγS assay,SMILES
0.759 µM,inverse agonists,COc1ccc2[nH]c3c(c2c1)CCN1C(=O)CN(CCc2c[nH]c4ccccc24)C(=O)[C@]31C [Compound 2]
,inverse agonist,Cc1noc(-c2ccc(O)cc2O)c1-c1ccc(Br)cc1 [Compound 16]
1.6 µM,inverse agonists,COC(=O)CC(c1ccc2c(c1)OCO2)c1oc(CSc2ccccc2)cc(=O)c1O (stereo not shown) [Compound 12]

# Same assay, conditions: read-out: EC50 CB1 GTPγS
row,EC50,SMILES
1,0.128 µM,Cc1noc(-c2ccc(O)cc2O)c1-c1ccc(Br)cc1 [Compound 16]
